EC50 data for eleven compounds are collected here from patent US8802661B2, “C-28 amides of modified C-3 betulinic acid derivatives as HIV maturation inhibitors” (priority 2010, dated 2014).

Each structure is given as a SMILES string. Some results are limits rather than exact numbers.

The EC50 is the concentration that produces a half-maximal response.

The test system of one test is recombinant NL4-3 virus (Renilla luciferase in nef, Gag P373S). The test can be described thus: HIV Cell Culture Assay (luciferase reporter virus in MT-2 cells). The following applies: NL43. It counts as cell-based. Put shortly: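 MT-2 cells infected 4–5 days with NL4-3 carrying Renilla luciferase in nef and Gag P373S, with serial dilutions of inhibitor present. Antiviral activity quantified by luciferase activity, using Dual Luciferase reagents premixed with lysis buffer and read immediately.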
(Reporter assays use an easily measured gene product as a stand-in for the process of interest.)
`C=C(C)[C@@H]1CC[C@]2(C(=O)NCc3cccs3)CC[C@]3(C)[C@H](CC[C@@H]4[C@@]5(C)CC=C(c6ccc(C(=O)O)cc6)C(C)(C)[C@@H]5CC[C@]43C)[C@@H]12` [Example 42, 4-((1R,3aS,5aR,5bR,7aR,11aS,11bR,13aR,13bR)-5a,5b,8,8,11a-pentamethyl-1-(prop-1-en-2-yl)-3a-(thiophen-2-ylmethylcarbamoyl)-2,3,3a,4,5,5a,5b,6,7,7a,8,11,11a,11b,12,13,13a,13b-octadecahydro-1H-cyclopenta[a]chrysen-9-yl)benzoic acid]: the EC50 came to 120 nM.

The test is the same for the next values; noted with them: NL43, read-out: EC50 Group.
For `C=C(C)[C@@H]1CC[C@]2(C(=O)N[C@@H](CC(C)C)C(=O)O)CC[C@]3(C)[C@H](CC[C@@H]4[C@@]5(C)CC=C(c6ccc(C(=O)O)cc6)C(C)(C)[C@@H]5CC[C@]43C)[C@@H]12` [Example 59, 4-((1R,3aS,5aR,5bR,7aR,11aS,11bR,13aR,13bR)-3a-((S)-1-carboxy-3-methylbutylcarbamoyl)-5a,5b,8,8,11a-pentamethyl-1-(prop-1-en-2-yl)-2,3,3a,4,5,5a,5b,6,7,7a,8,11,11a,11b,12,13,13a,13b-octadecahydro-1H-cyclopenta[a]chrysen-9-yl)benzoic acid], the EC50 is less than 100 nM.

`C=C(C)[C@@H]1CC[C@]2(C(=O)NCCO)CC[C@]3(C)[C@H](CC[C@@H]4[C@@]5(C)CC=C(c6ccc(C(=O)O)cc6)C(C)(C)[C@@H]5CC[C@]43C)[C@@H]12` [Example 17, 4-((1R,3aS,5aR,5bR,7aR,11aS,11bR,13aR,13bR)-3a-(2-hydroxyethylcarbamoyl)-5a,5b,8,8,11a-pentamethyl-1-(prop-1-en-2-yl)-2,3,3a,4,5,5a,5b,6,7,7a,8,11,11a,11b,12,13,13a,13b-octadecahydro-1H-cyclopenta[a]chrysen-9-yl)benzoic acid]: the EC50 is less than 100 nM.

Regarding `C=C(C)[C@@H]1CC[C@]2(C(=O)NCCN(CCC(=O)O)CCC(=O)O)CC[C@]3(C)[C@H](CC[C@@H]4[C@@]5(C)CC=C(c6ccc(C(=O)O)cc6)C(C)(C)[C@@H]5CC[C@]43C)[C@@H]12` [Example 90, 3,3′-(2-((1R,3aS,5aR,5bR,7aR,11aS,11bR,13aR,13bR)-9-(4-carboxyphenyl)-5a,5b,8,8,11a-pentamethyl-1-(prop-1-en-2-yl)-2,3,3a,4,5,5a,5b,6,7,7a,8,11,11a,11b,12,13,13a,13b-octadecahydro-1H-cyclopenta[a]chrysene-3a-carboxamido)ethylazanediyl)dipropanoic acid], the EC50 was greater than 100 nM.

As for `C=C(C)[C@@H]1CC[C@]2(C(=O)NCC(C)(C)N)CC[C@]3(C)[C@H](CC[C@@H]4[C@@]5(C)CC=C(c6ccc(C(=O)O)cc6)C(C)(C)[C@@H]5CC[C@]43C)[C@@H]12` [Example 38, 4-((1R,3aS,5aR,5bR,7aR,11aS,11bR,13aR,13bR)-3a-(2-amino-2-methylpropylcarbamoyl)-5a,5b,8,8,11a-pentamethyl-1-(prop-1-en-2-yl)-2,3,3a,4,5,5a,5b,6,7,7a,8,11,11a,11b,12,13,13a,13b-octadecahydro-1H-cyclopenta[a]chrysen-9-yl)benzoic acid], the 50% effective concentration (EC50) is less than 100 nM.

For `C=C(C)[C@@H]1CC[C@]2(C(=O)NCCN3CCS(=O)(=O)CC3)CC[C@]3(C)[C@H](CC[C@@H]4[C@@]5(C)CC=C(c6cc(F)c(C(=O)O)c(F)c6)C(C)(C)[C@@H]5CC[C@]43C)[C@@H]12` [Example 121, 4-((1R,3aS,5aR,5bR,7aR,11aS,11bR,13aR,13bR)-3a-((2-(1,1-dioxido-4-thiomorpholinyl)ethyl)carbamoyl)-1-isopropenyl-5a,5b,8,8,11a-pentamethyl-2,3,3a,4,5,5a,5b,6,7,7a,8,11,11a,11b,12,13,13a,13b-octadecahydro-1H-cyclopenta[a]chrysen-9-yl)-2,6-difluorobenzoic acid], the EC50 was less than 100 nM.

On to `C=C(C)[C@@H]1CC[C@]2(C(=O)NCCOC)CC[C@]3(C)[C@H](CC[C@@H]4[C@@]5(C)CC=C(c6ccc(C(=O)O)cc6)C(C)(C)[C@@H]5CC[C@]43C)[C@@H]12` [Example 69, 4-((1R,3aS,5aR,5bR,7aR,11aS,11bR,13aR,13bR)-3a-(2-methoxyethylcarbamoyl)-5a,5b,8,8,11a-pentamethyl-1-(prop-1-en-2-yl)-2,3,3a,4,5,5a,5b,6,7,7a,8,11,11a,11b,12,13,13a,13b-octadecahydro-1H-cyclopenta[a]chrysen-9-yl)benzoic acid], for which the EC50 was less than 100 nM.

In the case of `C=C(C)[C@@H]1CC[C@]2(C(=O)NCCN)CC[C@]3(C)[C@H](CC[C@@H]4[C@@]5(C)CC=C(c6ccc(C(=O)O)cc6)C(C)(C)[C@@H]5CC[C@]43C)[C@@H]12` [Example 125, 4-((1R,3aS,5aR,5bR,7aR,11aS,11bR,13aR,13bR)-3a-(2-aminoethylcarbamoyl)-5a,5b,8,8,11a-pentamethyl-1-(prop-1-en-2-yl)-2,3,3a,4,5,5a,5b,6,7,7a,8,11,11a,11b,12,13,13a,13b-octadecahydro-1H-cyclopenta[a]chrysen-9-yl)benzoic acid], the EC50 was less than 100 nM.

On to `C=C(C)[C@@H]1CC[C@]2(C(=O)NCCN(CC(=O)O)CC(=O)O)CC[C@]3(C)[C@H](CC[C@@H]4[C@@]5(C)CC=C(c6ccc(C(=O)O)cc6)C(C)(C)[C@@H]5CC[C@]43C)[C@@H]12` [Example 88, 2,2′-(2-((1R,3aS,5aR,5bR,7aR,11aS,11bR,13aR,13bR)-9-(4-carboxyphenyl)-5a,5b,8,8,11a-pentamethyl-1-(prop-1-en-2-yl)-2,3,3a,4,5,5a,5b,6,7,7a,8,11,11a,11b,12,13,13a,13b-octadecahydro-1H-cyclopenta[a]chrysene-3a-carboxamido)ethylazanediyl)diacetic acid], for which the EC50 was greater than 100 nM.

Consider `C=C(C)[C@@H]1CC[C@]2(C(=O)NCc3ccccn3)CC[C@]3(C)[C@H](CC[C@@H]4[C@@]5(C)CC=C(c6ccc(C(=O)O)cc6)C(C)(C)[C@@H]5CC[C@]43C)[C@@H]12` [Example 2, 4-((1R,3aS,5aR,5bR,7aR,11aS,11bR,13aR,13bR)-5a,5b,8,8,11a-pentamethyl-1-(prop-1-en-2-yl)-3a-(pyridin-2-ylmethylcarbamoyl)-2,3,3a,4,5,5a,5b,6,7,7a,8,11,11a,11b,12,13,13a,13b-octadecahydro-1H-cyclopenta[a]chrysen-9-yl)benzoic acid], for which the EC50 is less than 100 nM.

`C=C(C)[C@@H]1CC[C@]2(C(=O)NCCN(CC)CC(=O)O)CC[C@]3(C)[C@H](CC[C@@H]4[C@@]5(C)CC=C(c6ccc(C(=O)O)cc6)C(C)(C)[C@@H]5CC[C@]43C)[C@@H]12` [Example 83, 4-((1R,3aS,5aR,5bR,7aR,11aS,11bR,13aR,13bR)-3a-(2-((carboxymethyl)(ethyl)amino)ethylcarbamoyl)-5a,5b,8,8,11a-pentamethyl-1-(prop-1-en-2-yl)-2,3,3a,4,5,5a,5b,6,7,7a,8,11,11a,11b,12,13,13a,13b-octadecahydro-1H-cyclopenta[a]chrysen-9-yl)benzoic acid]: the EC50 was less than 100 nM.
